Experimental findings from patent publication US20230104936A1, “TRPML MODULATORS” (Casma Therapeutics, Inc., priority 2019, published 2023) are described below.

One test has as its system TFEB. The experiment in a line: TFEB nuclear translocation assay, HeLa wt cells. It counts as cell-based. Particulars: 2 hrs compound treatment, Table 1 does not say HeLa wt or TRPML1 KO. In outline: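 HeLa wt or TRPML1 KO cells treated 2 hrs with compounds at 37° C, fixed in 4% PFA, immunostained with anti-TFEB plus Alexa 488 secondary and Hoechst. Imaged at ×20, four fields/well; read-out is nuclear/perinuclear-ring TFEB intensity ratio, reported as AC50.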
What is called AC50 is the midpoint of the concentration-response curve, whichever way the signal moves. Consider `CC(c1cccc(F)c1N1CCC(CN2CCC(F)(F)CC2)CC1)S(=O)(=O)c1ccc(S(=O)(=O)N(C)C)cc1` (centres unmarked) [Compound A-803, 4-((1-(2-(4-((4,4-difluoropiperidin-1-yl)methyl)piperidin-1-yl)-3-fluorophenyl)ethyl)sulfonyl)-N,N-dimethylbenzenesulfonamide], for which the AC50 is ≤ 2 µM.

For `CC(C1CCN(c2c(F)cccc2NS(=O)(=O)c2ccc(S(=N)(=O)N(C)C)cc2)CC1)N1C[C@@H](C)O[C@@H](C)C1` (single isomer, unassigned) [Compound A-871A], the AC50 is ≤ 2 µM.

Regarding `C[C@H]1COC[C@H](C)N1CC1CCN(c2c(F)cccc2NS(=O)(=O)c2ccc(S(=N)(=O)N(C)C)cc2)CC1` (stereo partly drawn) [Compound A-840, N-(2-(4-(((3S,5S)-3,5-dimethylmorpholino)methyl)piperidin-1-yl)-3-fluorophenyl)-4-(N,N-dimethylsulfamidimidoyl)benzenesulfonamide], the AC50 was ≤ 2 µM.

The test is the same for the next values; noted with them: Homo sapiens, HeLa, 2 h, 2 hrs compound treatment, Table 1 does not say HeLa wt or TRPML1 KO.
`COCC1(C)CCN(c2ccccc2NS(=O)(=O)c2ccc(C3CC3)s2)CC1` [Compound A-708, 5-cyclopropyl-N-{2-[4-(methoxymethyl)-4-methylpiperidin-1-yl]phenyl}thiophene-2-sulfonamide]: the AC50 is ≤ 2 µM.

The compound `CS(=O)(=O)c1ccc(S(=O)(=O)Nc2ccc(F)cc2N2CCC(c3c(F)cccc3F)CC2)cc1` [Compound A-155, N-{2-[4-(2,6-difluorophenyl)piperidin-1-yl]-4-fluorophenyl}-4-methanesulfonylbenzene-1-sulfonamide] came in with a half-maximal activity concentration (AC50) of 2.01 to 8 µM.

For `O=S(=O)(Nc1cc(Cl)ccc1N1CCCC2(CCCO2)C1)c1ccc2c(c1)CCC2` (centres unmarked) [Compound A-362, N-(5-chloro-2-{1-oxa-7-azaspiro[4.5]decan-7-yl}phenyl)-2,3-dihydro-1H-indene-5-sulfonamide], the half-maximal activity concentration (AC50) was ≤ 2 µM.

For the compound `COc1ccc(S(=O)(=O)Nc2ccccc2N2CCC(Cc3ccc(F)cc3F)CC2)cc1` [Compound A-195, N-(2-{4-[(2,4-difluorophenyl)methyl]piperidin-1-yl}phenyl)-4-methoxybenzene-1-sulfonamide], the AC50 lay in the range of 2.01 to 8 µM.

As to `Cc1cc(Cl)c(N2CCOCC2)c(NS(=O)(=O)c2ccc3c(c2)CCC3)c1` [Compound A-887, N-[3-chloro-5-methyl-2-(morpholin-4-yl)phenyl]-2,3-dihydro-1H-indene-5-sulfonamide], the AC50 was ≤ 2 µM.

Regarding `CC(C)(C)C(=O)N1CCN(c2ccccc2NS(=O)(=O)c2ccc(C(C)(C)C(F)(F)F)cc2)CC1` [Compound A-572, N-{2-[4-(2,2-dimethylpropanoyl)piperazin-1-yl]phenyl}-4-(1,1,1-trifluoro-2-methylpropan-2-yl)benzene-1-sulfonamide], the AC50 fell in the range of 2.01 to 8 µM.

On to `CC1(C)CC2(CCN(c3ccccc3NS(=O)(=O)c3cccc(C4CC4(F)F)c3)CC2)CO1` (centres unmarked) [Compound A-687, 3-(2,2-difluorocyclopropyl)-N-(2-{3,3-dimethyl-2-oxa-8-azaspiro[4.5]decan-8-yl}phenyl)benzene-1-sulfonamide], for which the AC50 is ≤ 2 µM.

For the compound `Cc1ccc(S(=O)(=O)c2ccccc2N2CCC(c3ccc(Cl)cc3F)CC2)cc1` [Compound A-133], the concentration at half-maximal activity (AC50) was ≥ 10 µM.

Consider `CC1(C)CC2(CCN(c3c(F)cccc3NS(=O)(=O)Cc3ccccc3)CC2)CO1` [Compound A-702, N-(2-{3,3-dimethyl-2-oxa-8-azaspiro[4.5]decan-8-yl}-3-fluorophenyl)-1-phenylmethanesulfonamide], for which the AC50 was ≤ 2 µM.

As to `C[C@@H]1C[C@@]2(CCN1c1ccccc1NS(=O)(=O)c1ccc(S(=O)(=O)N(C)C)cc1)COC(C)(C)C2` (racemic) [Compound A-799, N1,N1-dimethyl-N4-(2-((5R,7R)-3,3,7-trimethyl-2-oxa-8-azaspiro[4.5]decan-8-yl)phenyl)benzene-1,4-disulfonamide], the AC50 was ≤ 2 µM.

`Cc1ccc(N2CCOCC2)c(NS(=O)(=O)Cc2ccc3c(c2)COCC3)c1` [Compound A-629, 1-(3,4-dihydro-1H-2-benzopyran-7-yl)-N-[5-methyl-2-(morpholin-4-yl)phenyl]methanesulfonamide] displayed a concentration at half-maximal activity (AC50) of 2.01 to 8 µM.
